Assay results published in ChEMBL document CHEMBL1201862, “PubChem BioAssay data set” (2004).
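In this assay, cells in 96-well plates receive the compound at five concentrations for 48 hours. Endpoints are linearly interpolated between the surrounding concentrations. GI50: concentration for 50% inhibition of growth.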 Activity calls are given as the source filed them. Rule as the data show it: active = GI50 up to about 1.1 µM and inactive = higher.

Experiments:
Test in all cases: growth of human tumour cells (NCI), 48 h
SR = test system: SR
RXF 393 = test system: RXF 393
K562 = test system: K562
EKVX = test system: EKVX
HT-29 = test system: HT-29
A549 = test system: A549
MDA-MB-435 = test system: MDA-MB-435
OVCAR-8 = test system: OVCAR-8
DU-145 = test system: DU-145
HL-60 = test system: HL-60
MCF7 = test system: MCF7
HOP-62 = test system: HOP-62
RPMI-8226 = test system: RPMI-8226
HOP-92 = test system: HOP-92
NCI-H23 = test system: NCI-H23
SN12C = test system: SN12C
SW-620 = test system: SW-620
786-0 = test system: 786-0
COLO 205 = test system: COLO 205
LOX IMVI = test system: LOX IMVI
TK-10 = test system: TK-10
CCRF-CEM = test system: CCRF-CEM
CAKI-1 = test system: CAKI-1
IGROV-1 = test system: IGROV-1
UACC-257 = test system: UACC-257
MOLT-4 = test system: MOLT-4
UACC-62 = test system: UACC-62
SK-MEL-5 = test system: SK-MEL-5
MDA-N = test system: MDA-N
SK-MEL-28 = test system: SK-MEL-28
OVCAR-4 = test system: OVCAR-4
T47D = test system: T47D
HCT-15 = test system: HCT-15
SK-OV-3 = test system: SK-OV-3
Malme-3M = test system: Malme-3M
PC-3 = test system: PC-3
SNB-75 = test system: SNB-75
MDA-MB-231 = test system: MDA-MB-231
KM12 = test system: KM12
SF-295 = test system: SF-295
SF-268 = test system: SF-268
M14 = test system: M14
HCC 2998 = test system: HCC 2998
U-251 = test system: U-251
HCT-116 = test system: HCT-116
NCI-H522 = test system: NCI-H522
Hs-578T = test system: Hs-578T
NCI-H226 = test system: NCI-H226
OVCAR-3 = test system: OVCAR-3
ACHN = test system: ACHN
A498 = test system: A498
SNB-19 = test system: SNB-19
NCI/ADR-RES = test system: NCI/ADR-RES
NCI-H460 = test system: NCI-H460
UO-31 = test system: UO-31

Measured: GI50

O=C1C=C/C(=N\N=C(c2ccccc2)c2ccccc2)O1
> 10 µM: HCT-15
inactive: SR > 10 µM | RXF 393 > 10 µM | K562 > 10 µM | EKVX > 10 µM | HT-29 > 10 µM | A549 > 10 µM | MDA-MB-435 > 10 µM | OVCAR-8 > 10 µM | DU-145 > 10 µM | HL-60 > 10 µM | MCF7 > 10 µM | HOP-62 > 10 µM | RPMI-8226 > 10 µM | HOP-92 > 10 µM | NCI-H23 > 10 µM | SN12C > 10 µM | SW-620 > 10 µM | 786-0 > 10 µM | COLO 205 > 10 µM | LOX IMVI > 10 µM | TK-10 > 10 µM | CCRF-CEM 8.49 µM | CAKI-1 > 10 µM | IGROV-1 > 10 µM | UACC-257 > 10 µM | MOLT-4 > 10 µM | UACC-62 > 10 µM | SK-MEL-5 > 10 µM | MDA-N > 10 µM | SK-MEL-28 > 10 µM | OVCAR-4 > 10 µM | T47D > 10 µM | SK-OV-3 > 10 µM | Malme-3M > 10 µM | PC-3 > 10 µM | SNB-75 > 10 µM | MDA-MB-231 > 10 µM | KM12 > 10 µM | SF-295 > 10 µM | SF-268 > 10 µM | M14 > 10 µM | HCC 2998 > 10 µM

ClCC1(CCl)COC1
> 100 µM: HCT-15
inactive: SR > 100 µM | RXF 393 > 100 µM | K562 > 100 µM | HT-29 > 100 µM | A549 > 100 µM | MDA-MB-435 > 100 µM | U-251 > 100 µM | OVCAR-8 > 100 µM | DU-145 > 100 µM | HL-60 > 100 µM | MCF7 > 100 µM | HOP-92 > 100 µM | NCI-H23 > 100 µM | HCT-116 > 100 µM | SN12C > 100 µM | NCI-H522 > 100 µM | SW-620 > 100 µM | COLO 205 > 100 µM | Hs-578T > 100 µM | NCI-H226 > 100 µM | LOX IMVI > 100 µM | TK-10 > 100 µM | CCRF-CEM > 100 µM | UACC-257 > 100 µM | MOLT-4 > 100 µM | SK-MEL-5 > 100 µM | MDA-N > 100 µM | SK-MEL-28 > 100 µM | OVCAR-4 > 100 µM | T47D > 100 µM | OVCAR-3 > 100 µM | ACHN > 100 µM | A498 > 100 µM | SK-OV-3 > 100 µM | PC-3 > 100 µM | SNB-75 > 100 µM | SNB-19 > 100 µM | NCI/ADR-RES > 100 µM | MDA-MB-231 > 100 µM | KM12 > 100 µM | NCI-H460 > 100 µM | SF-295 > 100 µM | UO-31 > 100 µM | SF-268 > 100 µM | M14 > 100 µM | HCC 2998 > 100 µM
